In ChEMBL document CHEMBL5356971, “Optimization of the Antibacterial Spectrum and the Developability Profile of the Novel-Class Natural Product Corramycin” (J Med Chem, 2023) one finds MIC data, which are given here for two compounds.

≈ marks a conversion by molar mass, not a printed value. A value given as a limit tells only on which side of the number the result lay.

What all share (assay type): functional
Conditions in all cases: time 20-22 hrs

Assay [1] concerns Escherichia coli. Briefly: Antibacterial activity against multidrug-resistant Escherichia coli UT189 assessed as bacterial growth inhibition incubated for 20 to 22 hrs by CLSI based analysis.
The next assay deals with Proteus mirabilis. Kind of assay: Antibacterial activity against multidrug-resistant Proteus mirabilis ATCC 7002 assessed as bacterial growth inhibition incubated for 20 to 22 hrs by CLSI based analysis.
Assay [2] deals with Escherichia coli. Briefly: Antibacterial activity against […] assessed as bacterial growth inhibition incubated for 20 to 22 hrs by CLSI based analysis.
Assay [3] relates to Escherichia coli. Kind of assay: Antibacterial activity against multidrug-resistant Escherichia coli MG1655 assessed as bacterial growth inhibition incubated for 20 to 22 hrs by CLSI based analysis.
Another assay relates to Providencia stuartii. Kind of assay: Antibacterial activity against multidrug-resistant Providencia stuartii ATCC 49809 assessed as bacterial growth inhibition incubated for 20 to 22 hrs by CLSI based analysis.
Assay [4] relates to Pseudomonas aeruginosa. Briefly: Antibacterial activity against multidrug-resistant Pseudomonas aeruginosa PAO750 assessed as bacterial growth inhibition incubated for 20 to 22 hrs by CLSI based analysis.
The test system of assay [5] is Escherichia coli. Kind of assay: Antibacterial activity against multidrug-resistant Escherichia coli MG1655 harboring tolC mutant assessed as bacterial growth inhibition incubated for 20 to 22 hrs by CLSI based analysis.
Assay [6] deals with Klebsiella pneumoniae. Briefly: Antibacterial activity against multidrug-resistant Klebsiella pneumoniae BAA2146 assessed as bacterial growth inhibition incubated for 20 to 22 hrs by CLSI based analysis.
In assay [7] the test system is Klebsiella pneumoniae. Briefly: Antibacterial activity against multidrug-resistant Klebsiella pneumoniae G199 assessed as bacterial growth inhibition incubated for 20 to 22 hrs by CLSI based analysis.
The test system of assay [8] is Klebsiella pneumoniae. Kind of assay: Antibacterial activity against multidrug-resistant Klebsiella pneumoniae BAA2473 assessed as bacterial growth inhibition incubated for 20 to 22 hrs by CLSI based analysis.
Assay [9] relates to Acinetobacter baumannii. Kind of assay: Antibacterial activity against multidrug-resistant Acinetobacter baumannii R835 assessed as bacterial growth inhibition incubated for 20 to 22 hrs by CLSI based analysis.
The next assay relates to Citrobacter freundii. Briefly: Antibacterial activity against multidrug-resistant Citrobacter freundii ATCC 8090 assessed as bacterial growth inhibition incubated for 20 to 22 hrs by CLSI based analysis.
For assay [10], the system named is Pseudomonas aeruginosa. Briefly: Antibacterial activity against multidrug-resistant Pseudomonas aeruginosa PAO1 assessed as bacterial growth inhibition incubated for 20 to 22 hrs by CLSI based analysis.
Assay [11] concerns Escherichia coli. Kind of assay: Antibacterial activity against multidrug-resistant Escherichia coli BAA2469 assessed as bacterial growth inhibition incubated for 20 to 22 hrs by CLSI based analysis.
The test system of the next assay is Enterobacter cloacae. Kind of assay: Antibacterial activity against multidrug-resistant Enterobacter cloacae BAA2341 assessed as bacterial growth inhibition incubated for 20 to 22 hrs by CLSI based analysis.
The test system of assay [12] is Klebsiella pneumoniae. Kind of assay: Antibacterial activity against multidrug-resistant Klebsiella pneumoniae R1525 assessed as bacterial growth inhibition incubated for 20 to 22 hrs by CLSI based analysis.
Assay [13] relates to Acinetobacter baumannii. Briefly: Antibacterial activity against multidrug-resistant Acinetobacter baumannii R831 assessed as bacterial growth inhibition incubated for 20 to 22 hrs by CLSI based analysis.
Assay [14] relates to Klebsiella pneumoniae. Briefly: Antibacterial activity against […] assessed as bacterial growth inhibition incubated for 20 to 22 hrs by CLSI based analysis.
Assay [15] has as its system Klebsiella pneumoniae. Kind of assay: Antibacterial activity against multidrug-resistant Klebsiella pneumoniae B817 assessed as bacterial growth inhibition incubated for 20 to 22 hrs by CLSI based analysis.
Assay [16] has as its system Escherichia coli. Briefly: Antibacterial activity against multidrug-resistant Escherichia coli IR45 assessed as bacterial growth inhibition incubated for 20 to 22 hrs by CLSI based analysis.

What is called MIC is the lowest concentration that inhibits growth of the organism. Turning to `C[C@@H](O)[C@H]1C(=O)N2C(C(=O)O)=C(SCCNC=N)C[C@H]12` [IMIPENEM ANHYDROUS], the MIC in the assay on Escherichia coli [1] is not above 0.25 µg/mL; in the assay on Proteus mirabilis it was 1 µg/mL (≈ 3.34 µM); with Escherichia coli [2], 0.25 µg/mL (≈ 0.835 µM); in the assay with Escherichia coli [3], not above 0.015 µg/mL; with Providencia stuartii, less than 0.125 µg/mL; in the assay on Pseudomonas aeruginosa [4] it was 1 µg/mL (≈ 3.34 µM). In addition, the MIC in the assay with Escherichia coli [5] was not above 0.015 µg/mL; in the assay on Klebsiella pneumoniae [6], more than 16 µg/mL; in the assay with Klebsiella pneumoniae [7], 16 µg/mL (≈ 53.4 µM); with Klebsiella pneumoniae [8] it was 1 µg/mL (≈ 3.34 µM); in the assay with Acinetobacter baumannii [9] it was more than 1 µg/mL; in the assay with Citrobacter freundii, 1 µg/mL (≈ 3.34 µM). For the same compound, the MIC in the assay with Pseudomonas aeruginosa [10] was 2 µg/mL (≈ 6.68 µM); in the assay with Escherichia coli [11], more than 2 µg/mL; in the assay on Enterobacter cloacae it was more than 64 µg/mL; in the assay on Klebsiella pneumoniae [12], more than 64 µg/mL; in the assay with Acinetobacter baumannii [13], more than 64 µg/mL; in the assay with Klebsiella pneumoniae [14], 16 µg/mL (≈ 53.4 µM).
In the case of `C[C@@H](O)[C@H]1C(=O)N2C(C(=O)O)=C(S[C@@H]3CN[C@H](C(=O)N(C)C)C3)[C@H](C)[C@H]12` [MEROPENEM], the MIC is not above 0.25 µg/mL in the assay with Proteus mirabilis; less than 0.03 µg/mL in the assay on Escherichia coli [2]; less than 0.03 µg/mL in the assay with Klebsiella pneumoniae [15]; not above 0.25 µg/mL in the assay on Providencia stuartii; not above 0.25 µg/mL in the assay on Pseudomonas aeruginosa [4]; 8 µg/mL (≈ 20.9 µM) in the assay on Escherichia coli [16]. Also, the MIC is more than 16 µg/mL in the assay with Klebsiella pneumoniae [6]; not above 0.25 µg/mL with Citrobacter freundii; 1 µg/mL (≈ 2.61 µM) in the assay on Pseudomonas aeruginosa [10]; less than 0.03 µg/mL with Escherichia coli [11]; more than 16 µg/mL in the assay on Enterobacter cloacae.
